Results reported in patent US10954221B2, “GLP-1R agonists and uses thereof” (QILU REGOR THERAPEUTICS INC., priority 2019, dated 2021).

Tests used:
GLP1R [1] = biological target: T1, GLP1R (Homo sapiens, UniProt P43220); set-up: Emax: dose or concentration left out as unconfirmed; conditions: CHO-K1, […], read-out: β-arrestin recruitment Bmax (%)
Target sequence in this assay (P43220 24-463): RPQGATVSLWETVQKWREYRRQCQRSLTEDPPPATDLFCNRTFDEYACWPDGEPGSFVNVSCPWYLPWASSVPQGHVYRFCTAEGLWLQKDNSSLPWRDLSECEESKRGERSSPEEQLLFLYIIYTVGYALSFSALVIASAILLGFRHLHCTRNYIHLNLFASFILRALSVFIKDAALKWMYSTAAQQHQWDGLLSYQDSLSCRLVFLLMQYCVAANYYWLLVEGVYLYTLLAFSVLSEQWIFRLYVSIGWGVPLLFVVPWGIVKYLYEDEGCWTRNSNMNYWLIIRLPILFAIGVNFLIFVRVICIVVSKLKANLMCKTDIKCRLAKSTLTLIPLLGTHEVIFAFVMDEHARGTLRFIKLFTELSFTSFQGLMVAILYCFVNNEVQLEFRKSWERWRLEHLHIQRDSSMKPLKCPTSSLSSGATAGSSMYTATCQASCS
Target sequence in this assay (P32121 whole entry partner): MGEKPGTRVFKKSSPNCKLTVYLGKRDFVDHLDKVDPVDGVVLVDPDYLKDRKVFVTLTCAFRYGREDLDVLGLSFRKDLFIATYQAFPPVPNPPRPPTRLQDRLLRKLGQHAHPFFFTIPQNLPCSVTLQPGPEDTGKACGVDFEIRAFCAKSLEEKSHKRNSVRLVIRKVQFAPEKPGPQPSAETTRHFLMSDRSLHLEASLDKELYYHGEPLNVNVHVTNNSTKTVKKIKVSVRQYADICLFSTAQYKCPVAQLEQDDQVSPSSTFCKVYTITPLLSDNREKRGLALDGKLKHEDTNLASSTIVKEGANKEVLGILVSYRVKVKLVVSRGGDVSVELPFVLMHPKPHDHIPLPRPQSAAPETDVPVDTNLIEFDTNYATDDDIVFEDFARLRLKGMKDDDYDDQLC
Method: Frozen cells were quickly thawed and 10 mL of cell plating medium (provided by the kit) was added to thawed cells. Cells were stored in a 37° C. incubator under 5% CO2 and kept for approximately 48 hours until ready to run the assay.
Reference and test compounds were dissolved in 100% DMSO. […] 5 μL of this solution was added to 20 μL cell medium in assay plate for a final top concentration of 10 μM. Plates were then incubated at 37° C. under 5% CO2 for 90 min.
Following 90 min incubation, detection reagents were made up by combining 1 part Galacton Star Substrate with 5 parts Emerald II™ Solution, and 19 parts of PathHunter Cell Assay Buffer, respectively. 12.5 μl detection reagent was added to each well. The plates were then incubated at room temperature in dark for 60 min. Plates were then read on Envision for 0.1 sec/well.
EC50 determinations were made from agonist dose-response curves analyzed with a curve fitting program using a 4-parameter logistic dose response equation.
Cells were plated at a density of 1000 or 2000 cells/20 μL/well. Frozen cells were quickly thawed and added to 10 mL of cell plating medium. Cells were stored in a 37 degree incubator under 5% CO2 and left for approximately 48 hours until ready to run the assay
Prepare 10× concentration of an agonist in serum free DMEM, and add all solutions into the compound plate. 2.5 μL of this solution was added to 20 μL cell medium in assay plate for a final top concentration of 10 μM. Plates were incubated at 37° C. under 5% CO2 for 30 min. An additional 2.5 μL of Buffer was added to the entire plate for agonist mode and incubated at 37° C. for another 90 min.
Following 90 min incubation, detection reagents were made up as described. 12.5 μL was added to all wells. The plates were then incubated at room temperature in dark for 60 min. Plates were then read on Envision for 0.1 sec/well.
Data analysis: GraphPad Prism 6 was used for establishment of progression curve. EC50s or IC50s were determined by 4-parameter logistic dose response equation.

GLP1R [2] = biological target: T1, GLP1R; assay: GLP1R cAMP assay (HTRF), HEK293/GLP-1R/CRE/Luc, Clone 4
Target sequence in this assay (P43220 24-463): as the sequence (P43220 24-463) above

Row | Structure (SMILES) | Emax (GLP1R [1]) | EC50 (GLP1R [2])
1 | O=C(O)c1ccc2nc(Cc3ccc(-c4cccc(OCc5ccc(Cl)cc5F)n4)c(F)c3)n(C[C@@H]3CCO3)c2n1 [Compound 102, (S)-2-(4-(6-((4-chloro-2-fluorobenzyl)oxy)pyridin-2-yl)-3-fluorobenzyl)-3-(oxetan-2-ylmethyl)-3H-imidazo[4,5-b]pyridine-5-carboxylic acid] | 28.3% | < 15 nM
2 | O=C(O)c1ccc2nc(Cc3cc(F)c(-c4cccc(OCc5ccc(Cl)cc5F)n4)cc3F)n(C[C@@H]3CCO3)c2c1 [Compound 257, (S)-2-(4-(6-((4-chloro-2-fluorobenzyl)oxy)pyridin-2-yl)-2,5-difluorobenzyl)-1-(oxetan-2-ylmethyl)-1H-benzo[d]imidazole-6-carboxylic acid] | 31.4% | < 15 nM
3 | N#Cc1ccc(COc2nc(-c3ccc(Cc4nc5ccc(C(=O)O)nc5n4C[C@@H]4CCO4)c(F)c3)ccc2F)c(F)c1 [Compound 284, (S)-2-(4-(6-(4-cyano-2-fluorobenzyloxy)-5-fluoropyridin-2-yl)-2-fluorobenzyl)-3-(oxetan-2-ylmethyl)-3H-imidazo[4,5-b]pyridine-5-carboxylic acid] | 25.5% | < 15 nM
4 | O=C(O)c1ccc2nc(Cc3ccc(-c4ncc(F)c(OCc5ccc(F)cc5F)n4)cc3F)n(C[C@@H]3CCO3)c2n1 [Compound 285, (S)-2-(4-(4-((2,4-difluorobenzyl)oxy)-5-fluoropyrimidin-2-yl)-2-fluorobenzyl)-3-(oxetan-2-ylmethyl)-3H-imidazo[4,5-b]pyridine-5-carboxylic acid] | 24% | < 15 nM
5 | O=C(O)c1ccc2nc(Cc3cc(F)c(-c4cccc(OCc5ncc(F)cc5F)n4)cc3F)n(C[C@@H]3CCO3)c2n1 [Compound 297, (S)-2-(4-(6-((3,5-difluoropyridin-2-yl)methoxy)pyridin-2-yl)-2,5-difluorobenzyl)-3-(oxetan-2-ylmethyl)-3H-imidazo[4,5-b]pyridine-5-carboxylic acid] |  | < 15 nM
6 | O=C(O)c1ccc2nc(Cc3ccc(-c4cccc(OCc5ccc(-n6ccnc6)cc5)n4)cc3F)n(C[C@@H]3CCO3)c2n1 [Compound 304, (S)-2-(4-(6-((4-(1H-imidazol-1-yl)benzyl)oxy)pyridin-2-yl)-2-fluorobenzyl)-3-(oxetan-2-ylmethyl)-3H-imidazo[4,5-b]pyridine-5-carboxylic acid] |  | < 15 nM
7 | O=C(O)c1ccc2nc(Cc3ccc(-c4cccc(OCc5ccc(Cl)cc5F)n4)cc3F)n(C[C@@H]3CCO3)c2c1F [Compound 309, (S)-2-(4-(6-((4-chloro-2-fluorobenzyl)oxy)pyridin-2-yl)-2-fluorobenzyl)-7-fluoro-1-(oxetan-2-ylmethyl)-1H-benzo[d]imidazole-6-carboxylic acid] |  | < 15 nM
8 | N#Cc1ccc(COc2nc(-c3cc(F)c(Cc4nc5ccc(C(=O)O)c(F)c5n4C[C@@H]4CCO4)cc3F)ncc2F)nc1 [Compound 313, (S)-2-(4-(4-((5-cyanopyridin-2-yl)methoxy)-5-fluoropyrimidin-2-yl)-2,5-difluorobenzyl)-7-fluoro-1-(oxetan-2-ylmethyl)-1H-benzo[d]imidazole-6-carboxylic acid] |  | < 15 nM
9 | N#Cc1ccc(COc2cccc(N3CCC(=Cc4nc5ccc(C(=O)O)nc5n4C[C@@H]4CCO4)CC3)n2)c(F)c1 [Compound 314, (S)-2-((1-(6-(4-cyano-2-fluorobenzyloxy)pyridin-2-yl)piperidin-4-ylidene)methyl)-3-(oxetan-2-ylmethyl)-3H-imidazo [4,5-b] pyridine-S-carboxylic acid] |  | 15 to 150 nM
10 | N#Cc1ccc(COc2cccc(N3CCC(=Cc4nc5ccc(C(=O)O)nc5n4C[C@@H]4CCO4)CC3)n2)nc1 [Compound 316, (S)-2-((1-(6-((5-cyanopyridin-2-yl)methoxy)pyridin-2-yl)piperidin-4-ylidene)methyl)-3-(oxetan-2-ylmethyl)-3H-imidazo[4,5-b]pyridine-5-carboxylic acid] |  | 15 to 150 nM
11 | N#Cc1ccc(COc2cccc(N3CCC(=Cc4nc5ccc(C(=O)O)c(F)c5n4C[C@@H]4CCO4)CC3)n2)nc1 [Compound 318, (S)-2-((1-(6-((5-cyanopyridin-2-yl)methoxy)pyridin-2-yl)piperidin-4-ylidene)methyl)-7-fluoro-1-(oxetan-2-ylmethyl)-1H-benzo[d]imidazole-6-carboxylic acid] |  | 15 to 150 nM
12 | N#Cc1ccc(COc2cccc(-c3ccc(Nc4nc5ccc(C(=O)O)cc5n4C[C@@H]4CCO4)c(F)c3)n2)c(F)c1 [Compound 320, (S)-2-((4-(6-((4-cyano-2-fluorobenzyl)oxy)pyridin-2-yl)-2-fluorophenyl)amino)-1-(oxetan-2-ylmethyl)-1H-benzo[d]imidazole-6-carboxylic acid] |  | 15 to 150 nM
13 | N#Cc1ccc(COc2cccc(-c3ccn(Cc4nc5ccc(C(=O)O)nc5n4C[C@@H]4CCO4)c(=O)c3)n2)c(F)c1 [Compound 324, (S)-2-((6-((4-cyano-2-fluorobenzyl)oxy)-2′-oxo-[2,4′-bipyridin]-1′(2′H)-yl)methyl)-3-(oxetan-2-ylmethyl)-3H-imidazo[4,5-b]pyridine-5-carboxylic acid] |  | 15 to 150 nM
14 | O=C(O)c1ccc2nc(CN3CC=C(c4cccc(OCc5ccc(Cl)cc5F)n4)CC3)c(Cc3cocn3)n2c1 [Compound 327, 2-((6-((4-chloro-2-fluorobenzyl)oxy)-3′,6′-dihydro-[2,4′-bipyridin]-1′(2′H)-yl)methyl)-3-(oxazol-4-ylmethyl)imidazo[1,2-a]pyridine-6-carboxylic acid] |  | 15 to 150 nM
15 | N#Cc1ccc(COc2cccc(C3=CCN(Cc4nc5ccc(B(O)O)cc5n4C[C@@H]4CCO4)CC3)n2)c(F)c1 [Compound 328, (S)-(2-((6-((4-cyano-2-fluorobenzyl)oxy)-3′,6′-dihydro-[2,4′-bipyridin]-1′(2′H)-yl)methyl)-1-(oxetan-2-ylmethyl)-1H-benzo[d]imidazol-6-yl)boronic acid] |  | 15 to 150 nM

Next, values leading:

Row | Emax (GLP1R [1]) | EC50 (GLP1R [2]) | Structure (SMILES)
16 | 28.5% | < 15 nM | N#Cc1ccc(COc2cccc(-c3cc(F)c(Cc4nc5ccc(C(=O)O)cc5n4C[C@@H]4CCO4)cc3F)n2)c(F)c1 [Compound 271, (S)-2-(4-(6-((4-cyano-2-fluorobenzyl)oxy)pyridin-2-yl)-2,5-difluorobenzyl)-1-(oxetan-2-ylmethyl)-1H-benzo[d]imidazole-6-carboxylic acid]
17 |  | < 15 nM | O=C(O)c1ccc2nc(Cc3ccc(-c4nc(OCc5ccc(Cl)cc5F)c(F)cc4F)cc3F)n(C[C@@H]3CCO3)c2n1 [Compound 299, (S)-2-(4-(6-(4-chloro-2-fluorobenzyloxy)-3,5-difluoropyridin-2-yl)-2-fluorobenzyl)-3-(oxetan-2-ylmethyl)-3H-imidazo [4,5-b]pyridine-S-carboxylic acid]
18 |  | 15 to 150 nM | N#Cc1cnc(COc2nc(-c3ccc(Cc4nc5ccc(C(=O)O)nc5n4C[C@@H]4CCO4)cc3F)ncc2F)c(F)c1 [Compound 302, (S)-2-(4-(4-((5-cyano-3-fluoropyridin-2-yl)methoxy)-5-fluoropyrimidin-2-yl)-3-fluorobenzyl)-3-(oxetan-2-ylmethyl)-3H-imidazo[4,5-b]pyridine-5-carboxylic acid]
19 |  | < 15 nM | O=C(O)c1ccc2nc(Cc3ccc(-c4nc(OCc5ccc(Cl)cc5F)c(F)cc4F)c(F)c3)n(C[C@@H]3CCO3)c2n1 [Compound 306, (S)-2-(4-(6-((4-chloro-2-fluorobenzyl)oxy)-3,5-difluoropyridin-2-yl)-3-fluorobenzyl)-3-(oxetan-2-ylmethyl)-3H-imidazo[4,5-b]pyridine-5-carboxylic acid]
20 |  | 150 to 1000 nM | O=C(O)c1ccc2nc(C=C3CCN(c4cccc(OCc5ccc(F)cc5F)n4)CC3)n(C[C@@H]3CCO3)c2n1 [Compound 315, (S)-2-((1-(6-(2,4-difluorobenzyloxy)pyridin-2-yl)piperidin-4-ylidene)methyl)-3-(oxetan-2-ylmethyl)-3H-imidazo[4,5-b]pyridine-5-carboxylic acid]
21 |  | < 15 nM | N#Cc1ccc(COc2cccc(N3CCC(=Cc4nc5ccc(C(=O)O)cc5n4C[C@@H]4CCO4)CC3)n2)c(F)c1 [Compound 317, (S)-2-((1-(6-((4-cyano-2-fluorobenzyl)oxy)pyridin-2-yl)piperidin-4-ylidene)methyl)-1-(oxetan-2-ylmethyl)-1H-benzo[d]imidazole-6-carboxylic acid]
22 |  | 15 to 150 nM | O=C(O)c1ccc2nc(CC3CCC(c4cccc(OCc5ccc(Cl)cc5F)n4)CC3)n(C[C@@H]3CCO3)c2c1 (stereo partly drawn) [Compound 319, (S)-2-((4-(6-((4-chloro-2-fluorobenzyl)oxy)pyridin-2-yl)cyclohexyl)methyl)-1-(oxetan-2-ylmethyl)-1H-benzo[d]imidazole-6-carboxylic acid]
23 |  | 15 to 150 nM | N#Cc1ccc(COc2nc(-c3ccn(Cc4nc5ccc(C(=O)O)nc5n4C[C@@H]4CCO4)c(=O)c3)ncc2F)c(F)c1 [Compound 325, (S)-2-((4-(4-((4-cyano-2-fluorobenzyl)oxy)-5-fluoropyrimidin-2-yl)-2-oxopyridin-1(2H)-yl)methyl)-3-(oxetan-2-ylmethyl)-3H-imidazo[4,5-b]pyridine-5-carboxylic acid]
24 |  | 15 to 150 nM | O=C(O)c1ccc2nc(CN3CC=C(c4cccnc4OCc4ccc(Cl)cc4F)CC3)n(C[C@@H]3CCO3)c2c1 [Compound 329, (S)-2-((2-((4-chloro-2-fluorobenzyl)oxy)-3′,6′-dihydro-[3,4′-bipyridin]-1′(2′H)-yl)methyl)-1-(oxetan-2-ylmethyl)-1H-benzo[d]imidazole-6-carboxylic acid]
25 |  | < 15 nM | CC1(c2ccc(Cl)cc2F)Oc2cccc(C3=CCN(Cc4nc5ccc(C(=O)O)cc5n4C[C@@H]4CCO4)CC3)c2O1 (stereo partly drawn) [Compound 330, 2-((4-(2-(4-chloro-2-fluorophenyl)-2-methylbenzo[d][1,3]dioxol-4-yl)-5,6-dihydropyridin-1(2H)-yl)methyl)-1-((S)-oxetan-2-ylmethyl)-1H-benzo[d]imidazole-6-carboxylic acid]
